Reference: patent US11471534B2, “Chitosan-pluronic complex and nano-carrier comprising same” (KOREA INSTITUTE OF CERAMIC ENGINEERING AND TECHNOLOGY, priority 2017, dated 2022)

Experiment: Distribution of model drug (Nile red) in skin, fluorescence microscope on cryo-sections
Format: in vitro ADME, human
Settings: after the skin penetration experiment, 20 μm cryo-sections
Experimental: After completing a skin penetration experiment of the drugs, skins were fixed in a […] neutral formalin solution for 12 hours or more to confirm how the drugs were distributed in the skins. After mixing the fixed skins with an OCT compound, allowing OCT compound-mixed skins to be frozen in liquid nitrogen of −20° C. or less, and cutting the frozen skins to a thickness of 20 μm through a cryo-section device (−25° C.), sampling was made by attaching the cut skins to glass. After washing samples with deionized water and observing distribution statuses of a model drug (Nile red) in the skins with a fluorescence microscope, observation results are illustrated in FIG. 10.

distribution of model drug (Nile red) in the skin: collected in stratum corneum
Compound: CCN(CC)c1ccc2nc3c4ccccc4c(=O)cc-3oc2c1 [Nile red]
